Values joined by “and” are separate entries in the source; they are usually repeats but may differ in a detail not shown here. Equal entries are not always repeated.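 Exposure lasted 48 hours, with cells grown in 96-well plates and compounds tested at five concentrations. GI50 marks 50% less growth. TGI: concentration producing complete growth inhibition.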
What was measured:
Assay in all cases: NCI-60 cell line screen, 48 h
[1] = tested on: SK-MEL-28 melanoma
[2] = tested on: CAKI-1 renal
[3] = tested on: NCI-H226 lung
[4] = tested on: HOP-92 NSCLC
[5] = tested on: UACC-62 melanoma
[6] = tested on: SW-620 colon
[7] = tested on: HOP-62 NSCLC
[8] = tested on: NCI-H460 lung
[9] = tested on: LOX IMVI melanoma

SMILES	GI50 [1]	TGI [1]	GI50 [2]	TGI [2]	GI50 [3]	TGI [3]	GI50 [4]	TGI [4]	GI50 [5]	TGI [5]	GI50 [6]	TGI [6]	GI50 [7]	TGI [7]	GI50 [8]	TGI [8]	GI50 [9]	TGI [9]
Cc1cc2c(cc1Cl)SC(N(c1ccccc1Cl)S(=O)(=O)c1ccc(Br)s1)=NS2(=O)=O	15.2 µM	29.6 µM	19.4 µM	48.4 µM	23.1 µM	> 100 µM	6.62 µM	21.8 µM	20.3 µM	68.4 µM	14.9 µM	30.4 µM	37.5 µM	> 100 µM	13.9 µM	36.3 µM	12.1 µM	25.5 µM
N#Cc1ncc(C(Cl)Cl)nc1Cl	–	4.2 µM	–	2.89 µM	–	> 10 µM	–	0.536 µM	–	5.9 µM	–	5.31 µM	–	> 8.07 µM	–	3.74 µM	–	2.97 µM
C/C=C1/CN2CCC34C(=C(C(=O)OC)C1CC23)Nc1ccc(O)cc14 (centres undefined)	–	> 100 µM	–	> 100 µM	–	> 100 µM	–	> 100 µM	–	> 100 µM	–	> 100 µM	–	–	–	> 100 µM	–	> 100 µM
Cc1ccc2nc(NC(=O)C(=O)C(C(=O)c3ccc4ccccc4c3)C3OC(=O)c4ccccc43)sc2c1 (centres undefined)	–	19.3 µM	–	52.3 µM	–	5.43 µM	–	15.2 µM	–	25 µM	–	22.9 µM	–	26.6 µM	–	18 µM	–	27.7 µM
O=C(Nc1ccc(OS(=O)(=O)c2ccc(F)cc2)cc1)C12CC3CC(CC(C3)C1)C2	28.1 µM	> 100 µM	29.4 µM	> 100 µM	15 µM	> 79.3 µM	3.45 µM	18.1 µM	6.44 µM	> 65 µM	0.54 µM	> 100 µM	11.3 µM	30.6 µM	8.09 µM	> 100 µM	> 27.5 µM	> 100 µM
Cc1ccc2c(c1)[n+](=O)c(C(=O)c1cccs1)c(C(F)(F)F)n2[O-]	5.31 µM and 2.91 µM	50 µM and 22.6 µM	0.856 µM and 0.395 µM	3.43 µM and 4.07 µM	2.21 µM	13.2 µM	1.63 µM and 1.78 µM	11.5 µM and 15.3 µM	0.951 µM and 1.91 µM	2.73 µM and 13.9 µM	2.02 µM and 3.58 µM	50 µM and 20.4 µM	2.39 µM and 0.689 µM	–	0.616 µM and 0.359 µM	–	0.612 µM and 0.561 µM	1.76 µM and 1.82 µM
COc1ccc(C(=O)/C=C/c2sc(Cl)nc2Cl)cc1	2.57 µM	8.17 µM	1.7 µM	5.45 µM	0.655 µM	17.8 µM	4.06 µM	18 µM	2.22 µM	6.19 µM	0.613 µM	2.79 µM	4.59 µM	21.2 µM	3.17 µM	10.6 µM	0.33 µM	1.36 µM
O=C(COc1ccc(/C=C2\Oc3ccc4ccccc4c3C2=O)cc1)c1ccc([N+](=O)[O-])cc1	19.4 µM	40.2 µM	18.8 µM	35.4 µM	16.7 µM	39.1 µM	19.8 µM	69.6 µM	11.9 µM	25.9 µM	3.88 µM	14.1 µM	26.7 µM	61.6 µM	16.5 µM	40.2 µM	2.88 µM	10.8 µM
